From ChEMBL document CHEMBL4507293 (2021) come the findings set out here.

The target in assay [1] is Sodium-dependent noradrenaline transporter (Homo sapiens) (UniProt P23975). The settings on record: Compound concentration 10.0 uM.
For assay [2], the target named is High affinity choline transporter 1 (Homo sapiens) (UniProt Q9GZV3). As to the kind of experiment: Transporter, Choline Eurofins-Panlabs radioligand binding assay. Also noted: ligand concentration 0.75 nM. The following applies: Rattus norvegicus; Compound concentration 10.0 uM.
Assay [3] concerns the target B2 bradykinin receptor (Homo sapiens) (UniProt P30411). Put plainly: Bradykinin B2 Eurofins-Panlabs radioligand binding assay. The following applies: Compound concentration 10.0 uM.
Assay [4] deals with Adenosine Transporter (Cavia porcellus) (UniProt H0V4R7+H0UUG1+H0V3Z5). Put plainly: (§1) Inhibition of Transporter, Adenosine at compound concentration of 10.0 uM in the Eurofins-Panlabs radioligand binding assay (Eurofins_assay_202000). Format: protein assay. Also noted: ligand concentration 0.5 nM, non-specific ligand with concentration 5 uM Nitrobenzylthioinosine, incubation time 30 min, incubation temperature 25 C.

A further assay addresses Adenosine Transporter (Cavia porcellus, UniProt H0V4R7+H0UUG1+H0V3Z5). The description is as §1. Also noted: ligand concentration 0.5 nM, non-specific ligand with concentration 5 uM Nitrobenzylthioinosine, incubation time 30 min, incubation temperature 25 C. Format: protein assay.
In assay [5] the target is Gamma-aminobutyric acid type B receptor subunit 1 (Homo sapiens) (UniProt Q9UBS5). The following applies: Rattus norvegicus; Compound concentration 10.0 uM.
Assay [6] concerns the target Alpha-1D adrenergic receptor (Homo sapiens) (UniProt P25100). The settings on record: Compound concentration 10.0 uM.
In assay [7] the target is Nociceptin receptor (Homo sapiens) (UniProt P41146). Put plainly: Orphanin ORL1 Eurofins-Panlabs radioligand binding assay. The following applies: Compound concentration 10.0 uM.
Nociceptin receptor (Homo sapiens), sequence (P41146 whole entry): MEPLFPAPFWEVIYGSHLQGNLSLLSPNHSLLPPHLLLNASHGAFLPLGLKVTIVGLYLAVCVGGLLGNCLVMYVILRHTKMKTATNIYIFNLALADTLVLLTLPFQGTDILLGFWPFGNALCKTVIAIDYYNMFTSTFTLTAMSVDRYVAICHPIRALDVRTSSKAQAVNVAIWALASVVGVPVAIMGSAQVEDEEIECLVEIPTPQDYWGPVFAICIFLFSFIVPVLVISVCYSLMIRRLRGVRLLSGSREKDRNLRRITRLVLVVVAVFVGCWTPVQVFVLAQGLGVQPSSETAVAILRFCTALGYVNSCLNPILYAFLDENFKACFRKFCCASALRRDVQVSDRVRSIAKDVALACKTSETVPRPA
Assay [8] deals with C-X-C chemokine receptor type 2 (Homo sapiens) (UniProt P25025). As to the kind of experiment: Inhibition of Chemokine CXCR2 (IL-8RB) at 10 µM in the Eurofins-Panlabs radioligand binding assay (Eurofins_assay_244500). The settings on record: Compound concentration 10.0 uM.
The target of assay [9] is Histamine H4 receptor (Homo sapiens) (UniProt Q9H3N8). As to the kind of experiment: Histamine H4 Eurofins-Panlabs radioligand binding assay. The following applies: Compound concentration 10.0 uM.
Histamine H4 receptor (Homo sapiens), sequence (Q9H3N8 whole entry): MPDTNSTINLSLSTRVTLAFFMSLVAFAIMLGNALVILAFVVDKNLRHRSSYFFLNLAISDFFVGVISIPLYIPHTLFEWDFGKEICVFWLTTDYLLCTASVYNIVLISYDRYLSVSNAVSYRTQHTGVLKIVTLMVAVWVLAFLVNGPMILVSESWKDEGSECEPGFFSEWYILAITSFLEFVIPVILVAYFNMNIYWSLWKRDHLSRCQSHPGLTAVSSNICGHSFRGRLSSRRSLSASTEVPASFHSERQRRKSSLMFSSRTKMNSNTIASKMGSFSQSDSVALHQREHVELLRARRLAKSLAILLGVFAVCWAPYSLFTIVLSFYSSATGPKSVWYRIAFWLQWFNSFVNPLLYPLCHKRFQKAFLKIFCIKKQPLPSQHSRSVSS
The target of assay [10] is Vasopressin V1b receptor (Homo sapiens) (UniProt P47901). As to the kind of experiment: Inhibition of Vasopressin V1B at 10 µM in the Eurofins-Panlabs radioligand binding assay (Eurofins_assay_287560). Set-up: ligand concentration 1 nM. The settings on record: Compound concentration 10.0 uM.
The target in assay [11] is Sodium-dependent serotonin transporter (Homo sapiens) (UniProt P31645). The settings on record: Compound concentration 10.0 uM.
Assay [12] deals with Epidermal growth factor receptor (Homo sapiens) (UniProt P00533). As to the kind of experiment: Protein Tyrosine Kinase, EGF Receptor Eurofins-Panlabs enzyme assay. Set-up: substrate with concentration 10 µg/mL Poly(Glu:Tyr), incubation time 60 min, incubation temperature 25 °C. The settings on record: Compound concentration 10.0 uM.
Assay [13] has as its target Glutamate NMDA receptor (Rattus norvegicus) (UniProt P35439+Q00959+Q00960+Q00961+Q62645+Q8VHN2+Q9R1M7). The settings on record: Compound concentration 10.0 uM.
The target of assay [14] is Substance-P receptor (Homo sapiens) (UniProt P25103). Put plainly: Tachykinin NK1 Eurofins-Panlabs radioligand binding assay. The following applies: Compound concentration 10.0 uM.
The target of assay [15] is Melanin-concentrating hormone receptor 1 (Homo sapiens) (UniProt Q99705). Put plainly: Melanin-Concentrating Hormone MCH1 (SLC1) Eurofins-Panlabs radioligand binding assay. The following applies: Compound concentration 10.0 uM. Set-up: ligand concentration 0.05 nM.
Melanin-concentrating hormone receptor 1 (Homo sapiens), sequence (Q99705 whole entry): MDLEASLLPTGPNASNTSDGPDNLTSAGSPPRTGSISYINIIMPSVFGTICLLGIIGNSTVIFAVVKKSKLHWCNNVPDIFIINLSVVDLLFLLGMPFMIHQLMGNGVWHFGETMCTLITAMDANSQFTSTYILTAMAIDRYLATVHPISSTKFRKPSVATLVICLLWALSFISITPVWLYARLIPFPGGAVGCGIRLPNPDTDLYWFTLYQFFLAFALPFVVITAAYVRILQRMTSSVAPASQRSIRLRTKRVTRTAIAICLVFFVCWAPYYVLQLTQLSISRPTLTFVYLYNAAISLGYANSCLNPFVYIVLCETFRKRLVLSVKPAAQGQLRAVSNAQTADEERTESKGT
The target in assay [16] is Cannabinoid receptor 1 (Homo sapiens) (UniProt P21554). The following applies: Compound concentration 10.0 uM.
The next assay is filed under the species Homo sapiens. Put plainly: Cholecystokinin CCK2 (CCKB) Eurofins-Panlabs radioligand binding assay. The settings on record: Compound concentration 10.0 uM. Set-up: ligand concentration 0.072 nM, non-specific ligand with concentration 1 µM Sincalide, incubation time 3 h, incubation temperature 25 °C.
In assay [17] the target is Purinergic P2Y (Rattus norvegicus) (UniProt O35811+Q9EPX4+P49651+Q63371+P41232+O35881+Q6GUG4). The settings on record: Compound concentration 10.0 uM.
For assay [18], the target named is T1, Alpha-1A adrenergic receptor (Homo sapiens) (UniProt P35348).
T1 sequence (whole entry): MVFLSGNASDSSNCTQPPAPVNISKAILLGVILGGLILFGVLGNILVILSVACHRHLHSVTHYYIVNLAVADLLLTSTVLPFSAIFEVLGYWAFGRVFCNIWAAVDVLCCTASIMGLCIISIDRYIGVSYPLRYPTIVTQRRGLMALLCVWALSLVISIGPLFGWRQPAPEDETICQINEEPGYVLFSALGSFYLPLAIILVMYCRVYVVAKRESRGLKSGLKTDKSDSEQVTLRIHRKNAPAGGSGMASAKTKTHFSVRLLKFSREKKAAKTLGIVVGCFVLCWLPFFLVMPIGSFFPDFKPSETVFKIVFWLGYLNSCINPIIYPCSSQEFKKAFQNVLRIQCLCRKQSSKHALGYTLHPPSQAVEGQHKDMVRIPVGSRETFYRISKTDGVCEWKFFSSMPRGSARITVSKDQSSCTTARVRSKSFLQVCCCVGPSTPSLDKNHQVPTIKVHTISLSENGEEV
The following applies: Rattus norvegicus; Compound concentration 10.0 uM.

The target of assay [19] is T2, Alpha-2C adrenergic receptor (Homo sapiens) (UniProt P18825).
T2 sequence (whole entry): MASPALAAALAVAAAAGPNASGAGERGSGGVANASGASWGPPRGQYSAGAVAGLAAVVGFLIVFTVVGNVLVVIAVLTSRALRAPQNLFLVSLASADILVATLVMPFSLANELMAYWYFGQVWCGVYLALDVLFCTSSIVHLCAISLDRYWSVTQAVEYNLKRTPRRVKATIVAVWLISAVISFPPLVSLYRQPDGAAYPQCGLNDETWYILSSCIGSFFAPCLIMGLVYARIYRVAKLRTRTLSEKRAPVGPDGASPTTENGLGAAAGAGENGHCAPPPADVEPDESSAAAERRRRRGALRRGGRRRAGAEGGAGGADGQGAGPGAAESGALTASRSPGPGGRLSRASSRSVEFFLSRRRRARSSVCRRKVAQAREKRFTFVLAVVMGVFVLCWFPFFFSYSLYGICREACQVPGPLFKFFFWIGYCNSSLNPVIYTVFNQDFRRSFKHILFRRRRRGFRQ
As to the kind of experiment: Adrenergic alpha2C Eurofins-Panlabs radioligand binding assay. Also noted: ligand concentration 1 nM, non-specific ligand with concentration 10 µM WB-4101, incubation time 60 min, incubation temperature 25 °C. The settings on record: Compound concentration 10.0 uM.

Assay [20] deals with B1 bradykinin receptor (Homo sapiens) (UniProt P46663). As to the kind of experiment: Inhibition of Bradykinin B1 at 10 µM in the Eurofins-Panlabs radioligand binding assay (Eurofins_assay_212510). The settings on record: Compound concentration 10.0 uM.
Assay [21] has as its target Vasoactive intestinal polypeptide receptor 1 (Homo sapiens) (UniProt P32241). Put plainly: Inhibition of Vasoactive Intestinal Peptide VIP1 at 10 µM in the Eurofins-Panlabs radioligand binding assay (Eurofins_assay_287010). The settings on record: Compound concentration 10.0 uM.
For assay [22], the target named is Neuropeptide Y receptor type 1 (Homo sapiens) (UniProt P25929). Put plainly: Inhibition of Neuropeptide Y Y1 at 10 µM in the Eurofins-Panlabs radioligand binding assay (Eurofins_assay_257010). The following applies: Compound concentration 10.0 uM.
Neuropeptide Y receptor type 1 (Homo sapiens), sequence (P25929 whole entry): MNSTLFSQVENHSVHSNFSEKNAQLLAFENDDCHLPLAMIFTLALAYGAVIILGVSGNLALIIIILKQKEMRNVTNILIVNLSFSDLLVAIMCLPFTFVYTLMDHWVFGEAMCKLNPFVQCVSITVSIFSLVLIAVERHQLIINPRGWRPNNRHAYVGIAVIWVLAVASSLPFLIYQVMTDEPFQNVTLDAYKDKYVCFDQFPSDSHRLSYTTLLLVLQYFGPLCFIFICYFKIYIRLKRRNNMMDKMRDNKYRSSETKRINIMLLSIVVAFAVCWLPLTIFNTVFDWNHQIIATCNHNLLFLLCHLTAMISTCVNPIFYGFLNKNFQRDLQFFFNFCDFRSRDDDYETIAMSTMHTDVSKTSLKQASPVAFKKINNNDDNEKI
Assay [23] addresses Peroxisome proliferator-activated receptor gamma (Homo sapiens) (UniProt P37231). Put plainly: PPARgamma Eurofins-Panlabs radioligand binding assay. The settings on record: Compound concentration 10.0 uM. Set-up: ligand concentration 5 nM, non-specific ligand with concentration 0.5 µM L-797773, incubation time 18 h, incubation temperature 15 °C.
Assay [24] deals with Sodium-dependent dopamine transporter (Homo sapiens) (UniProt Q01959). The following applies: Compound concentration 10.0 uM.
Sodium-dependent dopamine transporter (Homo sapiens), sequence (Q01959 whole entry): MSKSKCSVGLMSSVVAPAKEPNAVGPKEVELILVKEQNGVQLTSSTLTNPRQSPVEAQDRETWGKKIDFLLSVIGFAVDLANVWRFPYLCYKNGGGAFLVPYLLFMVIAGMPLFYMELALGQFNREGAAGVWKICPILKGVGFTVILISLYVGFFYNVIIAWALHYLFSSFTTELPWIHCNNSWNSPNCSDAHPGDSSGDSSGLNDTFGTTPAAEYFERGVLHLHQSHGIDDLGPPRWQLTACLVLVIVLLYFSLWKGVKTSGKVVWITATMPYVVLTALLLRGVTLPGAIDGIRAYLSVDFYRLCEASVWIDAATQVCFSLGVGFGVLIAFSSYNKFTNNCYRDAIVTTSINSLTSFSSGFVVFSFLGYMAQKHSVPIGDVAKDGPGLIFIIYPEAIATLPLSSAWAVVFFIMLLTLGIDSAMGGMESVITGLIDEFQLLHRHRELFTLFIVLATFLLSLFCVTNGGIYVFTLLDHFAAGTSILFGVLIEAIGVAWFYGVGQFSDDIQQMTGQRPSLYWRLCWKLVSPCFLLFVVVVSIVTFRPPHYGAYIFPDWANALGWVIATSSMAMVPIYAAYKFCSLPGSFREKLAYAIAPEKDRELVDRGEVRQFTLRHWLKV
The target in assay [25] is Serine/threonine-protein kinase ULK1 (Homo sapiens) (UniProt O75385). The settings on record: Compound concentration 100.0 nM.
Serine/threonine-protein kinase ULK1 (Homo sapiens), sequence (O75385 whole entry): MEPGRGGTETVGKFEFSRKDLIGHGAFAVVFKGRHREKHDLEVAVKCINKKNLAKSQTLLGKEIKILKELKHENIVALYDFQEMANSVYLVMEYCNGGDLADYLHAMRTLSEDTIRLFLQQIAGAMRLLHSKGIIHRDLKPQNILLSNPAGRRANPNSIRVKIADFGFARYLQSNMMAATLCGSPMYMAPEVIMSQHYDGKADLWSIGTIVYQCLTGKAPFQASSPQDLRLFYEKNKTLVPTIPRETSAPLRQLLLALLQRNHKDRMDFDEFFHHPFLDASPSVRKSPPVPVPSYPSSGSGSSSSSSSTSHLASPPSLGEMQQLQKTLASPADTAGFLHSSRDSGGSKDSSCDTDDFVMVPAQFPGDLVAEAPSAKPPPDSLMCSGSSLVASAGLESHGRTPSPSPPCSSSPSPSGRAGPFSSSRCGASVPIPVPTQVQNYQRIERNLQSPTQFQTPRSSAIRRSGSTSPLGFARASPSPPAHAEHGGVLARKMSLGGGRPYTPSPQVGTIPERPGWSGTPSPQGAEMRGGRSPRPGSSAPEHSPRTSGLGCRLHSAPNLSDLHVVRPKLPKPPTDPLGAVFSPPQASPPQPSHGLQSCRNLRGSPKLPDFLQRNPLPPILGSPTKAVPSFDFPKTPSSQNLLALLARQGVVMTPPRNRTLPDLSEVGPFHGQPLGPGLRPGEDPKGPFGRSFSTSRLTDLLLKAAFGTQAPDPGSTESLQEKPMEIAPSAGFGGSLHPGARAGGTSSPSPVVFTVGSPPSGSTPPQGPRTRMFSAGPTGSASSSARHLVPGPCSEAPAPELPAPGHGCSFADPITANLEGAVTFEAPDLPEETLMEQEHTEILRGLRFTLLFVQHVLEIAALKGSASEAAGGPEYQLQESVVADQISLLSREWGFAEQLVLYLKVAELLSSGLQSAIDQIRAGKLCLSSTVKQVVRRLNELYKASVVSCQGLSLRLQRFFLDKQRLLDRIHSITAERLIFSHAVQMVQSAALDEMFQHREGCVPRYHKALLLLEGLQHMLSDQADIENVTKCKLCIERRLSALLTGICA

Vasoactive intestinal polypeptide receptor 1 (Homo sapiens), sequence (P32241 whole entry): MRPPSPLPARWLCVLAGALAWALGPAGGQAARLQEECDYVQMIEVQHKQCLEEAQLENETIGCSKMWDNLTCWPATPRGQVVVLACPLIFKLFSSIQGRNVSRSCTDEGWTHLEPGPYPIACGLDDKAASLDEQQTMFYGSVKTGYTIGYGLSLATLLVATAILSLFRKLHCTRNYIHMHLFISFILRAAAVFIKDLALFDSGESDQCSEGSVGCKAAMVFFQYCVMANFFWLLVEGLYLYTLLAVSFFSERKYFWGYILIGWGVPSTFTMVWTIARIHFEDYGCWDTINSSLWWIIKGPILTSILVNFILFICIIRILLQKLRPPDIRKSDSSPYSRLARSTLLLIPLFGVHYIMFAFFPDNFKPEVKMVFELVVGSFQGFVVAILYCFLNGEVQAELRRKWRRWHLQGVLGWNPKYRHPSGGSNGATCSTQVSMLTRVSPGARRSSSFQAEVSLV
Sodium-dependent noradrenaline transporter (Homo sapiens), sequence (P23975 whole entry): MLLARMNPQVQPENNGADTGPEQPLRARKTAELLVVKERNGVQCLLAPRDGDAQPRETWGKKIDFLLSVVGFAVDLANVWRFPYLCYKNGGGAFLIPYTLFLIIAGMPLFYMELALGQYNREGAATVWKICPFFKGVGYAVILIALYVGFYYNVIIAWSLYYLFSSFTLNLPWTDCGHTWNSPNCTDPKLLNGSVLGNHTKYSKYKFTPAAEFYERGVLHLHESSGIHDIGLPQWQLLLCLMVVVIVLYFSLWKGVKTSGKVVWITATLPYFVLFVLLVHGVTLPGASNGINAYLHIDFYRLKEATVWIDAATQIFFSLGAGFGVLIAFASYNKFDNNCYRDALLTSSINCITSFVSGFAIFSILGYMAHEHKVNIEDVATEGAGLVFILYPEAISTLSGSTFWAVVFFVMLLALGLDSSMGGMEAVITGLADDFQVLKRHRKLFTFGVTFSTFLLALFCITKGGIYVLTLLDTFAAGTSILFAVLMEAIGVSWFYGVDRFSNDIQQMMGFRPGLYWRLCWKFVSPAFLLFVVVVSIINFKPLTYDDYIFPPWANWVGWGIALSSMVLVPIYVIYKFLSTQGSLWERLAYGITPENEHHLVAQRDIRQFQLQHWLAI
Alpha-1D adrenergic receptor (Homo sapiens), sequence (P25100 whole entry): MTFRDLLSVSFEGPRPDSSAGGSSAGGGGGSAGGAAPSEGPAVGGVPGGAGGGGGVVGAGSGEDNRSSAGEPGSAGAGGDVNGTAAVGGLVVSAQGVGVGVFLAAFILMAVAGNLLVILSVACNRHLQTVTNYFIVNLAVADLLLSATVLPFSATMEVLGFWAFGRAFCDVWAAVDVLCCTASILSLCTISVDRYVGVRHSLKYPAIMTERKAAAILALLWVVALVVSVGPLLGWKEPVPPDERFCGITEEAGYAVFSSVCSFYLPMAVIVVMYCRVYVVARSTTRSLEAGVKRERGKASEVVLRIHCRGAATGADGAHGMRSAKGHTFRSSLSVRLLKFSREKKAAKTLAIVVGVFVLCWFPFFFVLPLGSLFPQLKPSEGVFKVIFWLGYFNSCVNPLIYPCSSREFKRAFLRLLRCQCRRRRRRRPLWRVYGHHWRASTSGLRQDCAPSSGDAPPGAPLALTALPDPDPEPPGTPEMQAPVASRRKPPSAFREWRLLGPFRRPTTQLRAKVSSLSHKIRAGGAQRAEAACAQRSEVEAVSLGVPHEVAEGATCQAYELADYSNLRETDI

Take `COCCOc1nc(-c2ccc(Cl)nc2)nc2c1CN(C(=O)c1ncn3ccccc13)CC2` [THPP-1]: the inhibition in assay [1] was 3%; in assay [2], 9%; in assay [3], 13%; in assay [4] (Compound concentration 0.01 uM), -6%; in assay [4] (Compound concentration 0.1 uM), 21%; in [4] (Compound concentration 1.0 uM) it was 40%. Moreover, the inhibition is 75% in assay [4] (Compound concentration 10.0 uM); -5% in [5]; -4.48% in [6]; 5% in [7]; -4% in [8]; 1% in assay [9]. The inhibition was 5% in [10]; 2% in assay [11]; 6% in assay [12]; 0% in [13]; 8% in [14]; 4% in assay [15]. Besides, the inhibition in assay [16] is 21%; in the assay listed under Homo sapiens it was -8%; in assay [17], 5%; in assay [18], 9%; in assay [19], 3%; in assay [20], 28%. The inhibition in [21] is 8%; in [22], 1%; in assay [23], -4%. On Adenosine Transporter, this molecule returned an IC50 of 1610 nM. The same molecule had a Ki on Adenosine Transporter of 550 nM.
`CC(C)CC(=O)N1CCc2nc(-c3ccc(Br)cc3)nc(N(C)Cc3ccccc3)c2C1` [THPP-1-NC]: the inhibition in [24] is 15.3%. Besides, the residual activity in assay [25] was 90%.

The inhibition is the drop in the measured response relative to a control, in per cent. Usually IC50 stands for the concentration needed to halve the response being measured. A higher IC50 goes with weaker potency in that assay. In general, Ki refers to a dissociation constant, usually derived from enzyme kinetics or from competition with a known ligand. The term residual activity denotes the signal under treatment as a percentage of the control signal.
